Tested on: DLD-1 BRCA2(−/−) Cell
Test: Cell viability assay (Resazurin) in DLD1-BRCA2 cells
Format: cell-based
Details: Homo sapiens, DLD-1, 336 h, 14 days, 1,500 cells/well, final DMSO 1%
Summary of the method: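 DLD1-BRCA2 KG cells seeded at 1,500/well (parental 600/well) in RPMI-1640 with 10% FBS, compound added after 4 h (1% DMSO), media replaced every 3-4 days over 14 days at 37° C. Viability read by resazurin (0.1 mg/ml, 4 h) fluorescence at Ex/Em 560/590 nm; IC50 fitted.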

Row | IC50 [nM] | SMILES
1 | 1100 to 5000 | Cc1cc(C(F)(F)F)cc(N2[C@H](C(=O)N(CC#Cc3n[nH]c(=O)c4ccccc34)c3ccc(F)c(C)c3)CCS2(=O)=O)n1 [Example 101, (S)-N-(4-fluoro-3-methylphenyl)-2-(6-methyl-4-(trifluoromethyl)pyridin-2-yl)-N-(3-(4-oxo-3,4-dihydrophthalazin-1-yl)prop-2-yn-1-yl)isothiazolidine-3-carboxamide 1,1-dioxide]
2 | < 1000 | Cc1cc(C(F)(F)F)cc(N2[C@H](C(=O)N(CC#Cc3cccc(N4CCOCC4)n3)c3ccc(F)c(C)c3)CCS2(=O)=O)n1 [Example 86, (S)-N-(4-fluoro-3-methylphenyl)-2-(6-methyl-4-(trifluoromethyl)pyridin-2-yl)-N-(3-(6-morpholinopyridin-2-yl)prop-2-yn-1-yl)isothiazolidine-3-carboxamide 1,1-dioxide]
3 | < 1000 | Cc1cc(C(F)(F)F)cc(N2[C@H](C(=O)N(CC#Cc3ncc(C(=O)N4C5CCC4COC5)cn3)c3ccc(F)c(C)c3)CCS2(=O)=O)n1 [Example 83, (3S)-N-(3-(5-(3-oxa-8-azabicyclo[3.2.1]octane-8-carbonyl)pyrimidin-2-yl)prop-2-yn-1-yl)-N-(4-fluoro-3-methylphenyl)-2-(6-methyl-4-(trifluoromethyl)pyridin-2-yl)isothiazolidine-3-carboxamide 1,1-dioxide]
4 | < 1000 | Cc1cc(C(F)(F)F)cc(N2[C@H](C(=O)N(CC#Cc3cnc4c(c3)CN(C)C4=O)c3ccc(F)c(C)c3)CCS2(=O)=O)n1 [Example 98, (S)-N-(4-fluoro-3-methylphenyl)-2-(6-methyl-4-(trifluoromethyl)pyridin-2-yl)-N-(3-(6-methyl-7-oxo-6,7-dihydro-5H-pyrrolo[3,4-b]pyridin-3-yl)prop-2-yn-1-yl)isothiazolidine-3-carboxamide 1,1-dioxide]
5 | 1100 to 5000 | Cc1cc(C(F)(F)F)cc(N2[C@H](C(=O)N(CC#Cc3cncn3C)c3ccc(F)c(C)c3)CCS2(=O)=O)n1 [Example 102, (S)-N-(4-fluoro-3-methylphenyl)-N-(3-(1-methyl-1H-imidazol-5-yl)prop-2-yn-1-yl)-2-(6-methyl-4-(trifluoromethyl)pyridin-2-yl)isothiazolidine-3-carboxamide 1,1-dioxide]
6 | < 1000 | Cc1cc(C(F)(F)F)cc(N2[C@H](C(=O)N(CC#Cc3ccc(F)cn3)c3ccc(F)c(C)c3)CCS2(=O)=O)n1 [Example 93, (S)-N-(4-fluoro-3-methylphenyl)-N-(3-(5-fluoropyridin-2-yl)prop-2-yn-1-yl)-2-(6-methyl-4-(trifluoromethyl)pyridin-2-yl)isothiazolidine-3-carboxamide 1,1-dioxide]
7 | < 1000 | Cc1cc(C(F)(F)F)cc(N2[C@H](C(=O)N(CC#Cc3ncnc(N4CCOCC4)n3)c3ccc(F)c(C)c3)CCS2(=O)=O)n1 [Example 103, (S)-N-(4-fluoro-3-methylphenyl)-2-(6-methyl-4-(trifluoromethyl)pyridin-2-yl)-N-(3-(4-morpholino-1,3,5-triazin-2-yl)prop-2-yn-1-yl)isothiazolidine-3-carboxamide 1,1-dioxide]
8 | > 5100 | Cc1cc(C(F)(F)F)cc(N2[C@H](C(=O)N(CC#Cc3cnc4c(c3)C(=O)N(C)C4=O)c3ccc(F)c(C)c3)CCS2(=O)=O)n1 [Example 100, (S)-N-(4-fluoro-3-methylphenyl)-2-(6-methyl-4-(trifluoromethyl)pyridin-2-yl)-N-(3-(6-methyl-5,7-dioxo-6,7-dihydro-5H-pyrrolo[3,4-b]pyridin-3-yl)prop-2-yn-1-yl)isothiazolidine-3-carboxamide 1,1-dioxide]

Further lines, the compound ahead of its results:

Row | SMILES | IC50 [nM]
9 | Cc1cc(C(F)(F)F)cc(N2C(=O)CC[C@H]2C(=O)N(CC#CCN2CCN(c3cnccn3)CC2)c2ccc(F)c(C)c2F)n1 [Example 15, (S)—N-(2,4-difluoro-3-methylphenyl)-1-(6-methyl-4-(trifluoromethyl)pyridin-2-yl)-5-oxo-N-(4-(4-(pyrazin-2-yl)piperazin-1-yl)but-2-yn-1-yl)pyrrolidine-2-carboxamide] | 1100 to 5000
10 | Cc1cc(C(F)(F)F)cc(N2[C@H](C(=O)N(CC#Cc3ccc(OC(F)F)nn3)c3ccc(F)c(C)c3)CCS2(=O)=O)n1 [Example 28, (S)-N-(3-(6-(difluoromethoxy)pyridazin-3-yl)prop-2-yn-1-yl)-N-(4-fluoro-3-methylphenyl)-2-(6-methyl-4-(trifluoromethyl)pyridin-2-yl)isothiazolidine-3-carboxamide 1,1-dioxide] | < 1000
11 | CCN1CCN(CC#CCN(C(=O)[C@@H]2CCC(=O)N2c2cc(C(F)(F)F)cc(C)n2)c2ccc(F)c(C)c2F)CC1 [Example 13, (S)—N-(2,4-difluoro-3-methylphenyl)-N-(4-(4-ethylpiperazin-1-yl)but-2-yn-1-yl)-1-(6-methyl-4-(trifluoromethyl)pyridin-2-yl)-5-oxopyrrolidine-2-carboxamide] | 1100 to 5000
12 | Cc1cc(C(F)(F)F)cc(N2[C@H](C(=O)N(CC#Cc3cnc(C(=O)N4CCOCC4)cn3)c3ccc(F)c(C)c3)CCS2(=O)=O)n1 [Example 69, (S)-N-(4-fluoro-3-methylphenyl)-2-(6-methyl-4-(trifluoromethyl)pyridin-2-yl)-N-(3-(5-(morpholine-4-carbonyl)pyrazin-2-yl)prop-2-yn-1-yl)isothiazolidine-3-carboxamide 1,1-dioxide] | < 1000
13 | Cc1cc(C(F)(F)F)cc(N2[C@@H](C(=O)N(CC#Cc3cnc(N)cn3)c3ccc(F)c(C)c3F)CCS2(=O)=O)n1 [Example 31, (R)-N-(3-(5-aminopyrazin-2-yl)prop-2-yn-1-yl)-N-(2,4-diffuoro-3-methylphenyl)-2-(6-methyl-4-(trifluoromethyl)pyridin-2-yl)isothiazolidine-3-carboxamide 1,1-dioxide] | > 5100
14 | Cc1cc(C(F)(F)F)cc(N2C(=O)CC[C@H]2C(=O)N(CC#Cc2ccc(N)nn2)c2ccc(F)c(Cl)c2F)n1 [Example 4, (S)-N-(3-(6-aminopyridazin-3-yl)prop-2-yn-1-yl)-N-(3-chloro-2,4-difluorophenyl)-1-(6-methyl-4-(trifluoromethyl)pyridin-2-yl)-5-oxopyrrolidine-2-carboxamide] | < 1000
15 | Cc1cc(C(F)(F)F)cc(N2[C@H](C(=O)N(CC#Cc3cncc(C(N)=O)n3)c3ccc(F)c(C)c3)CCS2(=O)=O)n1 [Example 63, (S)-N-(3-(6-carbamoylpyrazin-2-yl)prop-2-yn-1-yl)-N-(4-fluoro-3-methylphenyl)-2-(6-methyl-4-(trifluoromethyl)pyridin-2-yl)isothiazolidine-3-carboxamide 1,1-dioxide] | < 1000
16 | Cc1cc(C(F)(F)F)cc(N2C(=O)CC[C@H]2C(=O)N(CC#Cc2ccc(F)cn2)c2ccc(F)c(C)c2)n1 [Example 8, (S)-N-(4-fluoro-3-methylphenyl)-N-(3-(5-fluoropyridin-2-yl)prop-2-yn-1-yl)-1-(6-methyl-4-(trifluoromethyl)pyridin-2-yl)-5-oxopyrrolidine-2-carboxamide] | < 1000
17 | Cc1cc(C(F)(F)F)cc(N2[C@H](C(=O)N(CC#Cc3ncc(N4CCOCC4)nc3N)c3ccc(F)c(C)c3)CCS2(=O)=O)n1 [Example 43] | 1100 to 5000
18 | Cc1cc(C(F)(F)F)cc(N2C(=O)CC[C@H]2C(=O)N(CC#Cc2ccc(N)nn2)c2ccc(F)c(C)c2F)n1 [Example 2, (S)-N-(3-(6-aminopyridazin-3-yl)prop-2-yn-1-yl)-N-(2,4-difluoro-3-methylphenyl)-1-(6-methyl-4-(trifluoromethyl)pyridin-2-yl)-5-oxopyrrolidine-2-carboxamide] | < 1000
